# Data as given in ChEMBL document CHEMBL3885881, “DrugMatrix”.
# Species on record: Rattus norvegicus
# Experiment: DrugMatrix - Regimen: Daily Repeat
# Format: toxicity, organism-based, Sprague-Dawley
# Set-up: regimen Daily Repeat, gender Male, age 6-8 weeks
# Conditions: in vivo, sc, route subcutaneous, […]; for ABSOLUTE BASOPHIL / ABSOLUTE EOSINOPHIL / ABSOLUTE LYMPHOCYTE / ABSOLUTE MONOCYTE / ABSOLUTE SEGMENTED NEUTROPHIL / BASOPHIL / EOSINOPHIL / ERYTHROCYTE COUNT / HEMATOCRIT / HEMOGLOBIN / LEUKOCYTE COUNT / LYMPHOCYTE / MEAN CORPUSCULAR HEMOGLOBIN / MEAN CORPUSCULAR HEMOGLOBIN CONCENTRATION / MEAN CORPUSCULAR VOLUME / MONOCYTE / NEUTROPHIL / NUCLEATED RED BLOOD CELLS / PLATELET COUNT: tissue Blood; for ALANINE AMINOTRANSFERASE / ALBUMIN / ALKALINE PHOSPHATASE / ASPARTATE AMINOTRANSFERASE / BLOOD UREA NITROGEN / CARBON DIOXIDE / CHLORIDE / CHOLESTEROL / CREATINE PHOSPHOKINASE / CREATININE / GLUCOSE / LACTATE DEHYDROGENASE / LIPASE / PHOSPHORUS / POTASSIUM / SODIUM / TOTAL BILIRUBIN / TOTAL PROTEIN / URIC ACID: tissue Plasma
# [1] = 18 mg/kg, 120 h, dose level High, time 5 day
# [2] = 72 h, dose 1.8 mg/Kg, dose level Low, time 3 day
# [3] = 120 h, dose 1.8 mg/Kg, dose level Low, time 5 day
smiles,measurement,setting,value
CN(C)c1ccc(C(=C2C=CC(=[N+](C)C)C=C2)c2ccc(N(C)C)cc2)cc1.[Cl-] [GENTIAN VIOLET],ABSOLUTE BASOPHIL,[1],0 CELLS/uL
same,ABSOLUTE EOSINOPHIL,[1],0 CELLS/uL
same,ABSOLUTE LYMPHOCYTE,[1],15601 CELLS/uL
same,ABSOLUTE MONOCYTE,[1],1849 CELLS/uL
same,ABSOLUTE SEGMENTED NEUTROPHIL,[1],7750 CELLS/uL
same,BASOPHIL,[1],0%
same,EOSINOPHIL,[1],0%
same,ERYTHROCYTE COUNT,[1],5.48 x10E6/uL
same,HEMATOCRIT,[1],32.93%
same,HEMOGLOBIN,[1],12.37 G/DL
same,LEUKOCYTE COUNT,[1],25.2 x10E3/uL
same,LYMPHOCYTE,[1],61.67%
same,MEAN CORPUSCULAR HEMOGLOBIN,[1],22.57 pg
same,MEAN CORPUSCULAR HEMOGLOBIN CONCENTRATION,[1],37.57 G/DL
same,MEAN CORPUSCULAR VOLUME,[1],60.17 fL
same,MONOCYTE,[1],7.33%
same,NEUTROPHIL,[1],31%
same,NUCLEATED RED BLOOD CELLS,[1],0 /100WBC
same,PLATELET COUNT,[1],1331.67 x10E3/uL
same,ALANINE AMINOTRANSFERASE,[1],49 u/L
same,ALBUMIN,[1],3.03 G/DL
same,ALKALINE PHOSPHATASE,[1],294.67 u/L
same,ASPARTATE AMINOTRANSFERASE,[1],116 u/L
same,BLOOD UREA NITROGEN,[1],16.33 mg/dL
same,CARBON DIOXIDE,[1],30.67 mmol/L
same,CHLORIDE,[1],100 MEQ/L
same,CHOLESTEROL,[1],62.33 mg/dL
same,CREATINE PHOSPHOKINASE,[1],196.33 u/L
same,CREATININE,[1],0.16 mg/dL
same,GLUCOSE,[1],141.33 mg/dL
same,LACTATE DEHYDROGENASE,[1],146.33 u/L
same,LIPASE,[1],8 u/L
same,PHOSPHORUS,[1],11.3 mg/dL
same,POTASSIUM,[1],6.88 MEQ/L
same,SODIUM,[1],143.85 MEQ/L
same,TOTAL BILIRUBIN,[1],0.13 mg/dL
same,TOTAL PROTEIN,[1],5.57 G/DL
same,URIC ACID,[1],1.37 mg/dL
same,ABSOLUTE BASOPHIL,[2],0 CELLS/uL
same,ABSOLUTE EOSINOPHIL,[2],115.33 CELLS/uL
same,ABSOLUTE LYMPHOCYTE,[2],15675.67 CELLS/uL
same,ABSOLUTE MONOCYTE,[2],309.33 CELLS/uL
same,ABSOLUTE SEGMENTED NEUTROPHIL,[2],2499.67 CELLS/uL
same,BASOPHIL,[2],0%
same,EOSINOPHIL,[2],0.67%
same,ERYTHROCYTE COUNT,[2],5.43 x10E6/uL
same,HEMATOCRIT,[2],34.87%
same,HEMOGLOBIN,[2],12.97 G/DL
same,LEUKOCYTE COUNT,[2],18.6 x10E3/uL
same,LYMPHOCYTE,[2],84.33%
same,MEAN CORPUSCULAR HEMOGLOBIN,[2],23.9 pg
same,MEAN CORPUSCULAR HEMOGLOBIN CONCENTRATION,[2],37.2 G/DL
same,MEAN CORPUSCULAR VOLUME,[2],64.3 fL
same,MONOCYTE,[2],1.67%
same,NEUTROPHIL,[2],13.33%
same,NUCLEATED RED BLOOD CELLS,[2],0 /100WBC
same,PLATELET COUNT,[2],1276.67 x10E3/uL
same,ALANINE AMINOTRANSFERASE,[2],46 u/L
same,ALBUMIN,[2],3.93 G/DL
same,ALKALINE PHOSPHATASE,[2],341 u/L
same,ASPARTATE AMINOTRANSFERASE,[2],77.33 u/L
same,BLOOD UREA NITROGEN,[2],15 mg/dL
same,CARBON DIOXIDE,[2],26.67 mmol/L
same,CHLORIDE,[2],102 MEQ/L
same,CHOLESTEROL,[2],86.67 mg/dL
same,CREATINE PHOSPHOKINASE,[2],247 u/L
same,CREATININE,[2],0.19 mg/dL
same,GLUCOSE,[2],138.67 mg/dL
same,LACTATE DEHYDROGENASE,[2],298.33 u/L
same,LIPASE,[2],9.33 u/L
same,PHOSPHORUS,[2],11.5 mg/dL
same,POTASSIUM,[2],6.51 MEQ/L
same,SODIUM,[2],144.73 MEQ/L
same,TOTAL BILIRUBIN,[2],0.23 mg/dL
same,TOTAL PROTEIN,[2],5.73 G/DL
same,URIC ACID,[2],1.4 mg/dL
same,ABSOLUTE BASOPHIL,[3],0 CELLS/uL
same,ABSOLUTE EOSINOPHIL,[3],0 CELLS/uL
same,ABSOLUTE LYMPHOCYTE,[3],17006.67 CELLS/uL
same,ABSOLUTE MONOCYTE,[3],546.67 CELLS/uL
same,ABSOLUTE SEGMENTED NEUTROPHIL,[3],2113.33 CELLS/uL
same,BASOPHIL,[3],0%
same,EOSINOPHIL,[3],0%
same,ERYTHROCYTE COUNT,[3],5.57 x10E6/uL
same,HEMATOCRIT,[3],34.4%
same,HEMOGLOBIN,[3],12.93 G/DL
same,LEUKOCYTE COUNT,[3],19.67 x10E3/uL
same,LYMPHOCYTE,[3],86%
same,MEAN CORPUSCULAR HEMOGLOBIN,[3],23.2 pg
same,MEAN CORPUSCULAR HEMOGLOBIN CONCENTRATION,[3],37.6 G/DL
same,MEAN CORPUSCULAR VOLUME,[3],61.77 fL
same,MONOCYTE,[3],2.67%
same,NEUTROPHIL,[3],11.33%
same,NUCLEATED RED BLOOD CELLS,[3],0 /100WBC
same,PLATELET COUNT,[3],1503 x10E3/uL
same,ALANINE AMINOTRANSFERASE,[3],51 u/L
same,ALBUMIN,[3],3.47 G/DL
same,ALKALINE PHOSPHATASE,[3],278 u/L
same,ASPARTATE AMINOTRANSFERASE,[3],83.67 u/L
same,BLOOD UREA NITROGEN,[3],19 mg/dL
same,CARBON DIOXIDE,[3],27.33 mmol/L
same,CHLORIDE,[3],105 MEQ/L
same,CHOLESTEROL,[3],73.33 mg/dL
same,CREATINE PHOSPHOKINASE,[3],310 u/L
same,CREATININE,[3],0.35 mg/dL
same,GLUCOSE,[3],162 mg/dL
same,LACTATE DEHYDROGENASE,[3],102.67 u/L
same,LIPASE,[3],9.67 u/L
same,PHOSPHORUS,[3],11.3 mg/dL
same,POTASSIUM,[3],6.63 MEQ/L
same,SODIUM,[3],144.03 MEQ/L
same,TOTAL BILIRUBIN,[3],0.13 mg/dL
same,TOTAL PROTEIN,[3],5.8 G/DL
same,URIC ACID,[3],1.63 mg/dL
